Experimental findings from article PMC11045757, “Group 3 medulloblastoma transcriptional networks collapse under domain specific EP300/CBP inhibition” (Nature Communications, 2024) are described below.

One data set has as its target T1, BRPF1 (Homo sapiens, UniProt P55201).
T1 construct: purchased Eurofins DiscoverX (BROMOscan)
Briefly: BromoScan profiling (DiscoverX). It is filed as binding. The note with it: read-out: Percent Control BRPF1.

In a further data set the target is T2, BRDT(1) (Homo sapiens, UniProt Q58F21).
T2 construct: BRDT(1); purchased Eurofins DiscoverX (BROMOscan)
Briefly: BromoScan profiling (DiscoverX). The note with it: read-out: Percent Control BRDT(1). It is filed as binding.

The next data set concerns the target T3, BRD4-BD1 (BRD4-1) (Homo sapiens, UniProt O60885).
T3 construct: BRD4-BD1 (residues 44-168); 6xHis (cleaved yes); host or cells: E. coli BL21 (DE3) RIL
Briefly: Isothermal titration calorimetry (ITC). It is filed as binding. The note with it: single ITC experiment, data fit ± SEM. The protocol: At OD600 of 0.6, the culture was cooled down to 18 °C and induced with 0.1 mM IPTG. After 18 h growth, the culture was harvested by centrifugation at 6000 × g for 25 min and stored at -80 °C. Harvested cell pellets were re-suspended in 50 mM Na/K phosphate buffer (pH 7.4) containing 100 mM NaCl, 40 mM imidazole, 0.01% w/v lysozyme and 0.01% v/v Triton X-100 at 4 °C for 1 h, subjected to sonication and the lysate was clarified by centrifugation (30,000 × g for 45 min at 4 °C). Proteins were purified by FPLC at 4 °C using columns and chromatography materials from GE Healthcare. […] Proteins were purified to homogeneity by size exclusion chromatography using Superdex 75 equilibrated with elution buffer (50 mM HEPES pH 7.5, 100 mM NaCl, 2 mM DTT). All BRDs eluted as monomeric protein and were of crystallization grade quality (>95% purity as judged by SDS-PAGE). Pool fractions were combined, concentrated to 10–12 mg/ml, and aliquots were flash-frozen in liquid N2 and stored at −80 °C.
All experiments were conducted using an PEAQ-ITC calorimeter (Malvern Scientific). BRDs were buffer exchanged using PD10 columns (GE life sciences) into 50 mM HEPES pH7.5 and 100 mM NaCl (ITC buffer) before the experiment and concentrated to ∼10 mg/mL. Experiments were carried out in ITC buffer while stirring at 750 rpm through reverse titration. The microsyringe (40 μL load volume) was loaded with the protein sample (250–600 μM protein in ITC buffer) and inserted into the calorimetric cell (0.2 mL cell volume) consisting of compound (20–60 μM in ITC buffer). All titrations were conducted using an initial control injection of 0.2 μL followed by 13 identical injections (~3 μL per injection) with a duration of 2 s (per injection) and a spacing of 150 s between injections. The ratio of protein/compound was optimized to ensure complete saturation of the titrant before the final injection to ensure proper baseline determination. Data were corrected for dilution and analyzed using the MicroCal Origin software to determine the enthalpies of binding (ΔH) and binding constants as described. Thermodynamic parameters were calculated using the basic equation of thermodynamics (ΔG = ΔH − TΔS = −RTlnKB) where ΔG, ΔH and ΔS are the changes in free energy, enthalpy and entropy of binding, respectively. A single binding site model was used for all ligand-protein interactions.
In general terms: Isothermal titration calorimetry measures the heat released or taken up as one component is titrated into another.

In the next data set the target is T4, PBRM1(2) (Homo sapiens, UniProt Q86U86).
T4 construct: PBRM1(2); purchased Eurofins DiscoverX (BROMOscan)
The data set can be described thus: BromoScan profiling (DiscoverX). It is filed as binding. The note with it: read-out: Percent Control PBRM1(2).

A further data set concerns the target T5, BAZ2A (Homo sapiens, UniProt Q9UIF9).
T5 construct: purchased Eurofins DiscoverX (BROMOscan)
Briefly: BromoScan profiling (DiscoverX). The format is binding. The following applies: read-out: Percent Control BAZ2A.

Another data set addresses T6, PBRM1(5) (Homo sapiens, UniProt Q86U86).
T6 construct: PBRM1(5); purchased Eurofins DiscoverX (BROMOscan)
Briefly: BromoScan profiling (DiscoverX). The note with it: read-out: Percent Control PBRM1(5). The format is binding.

The nature of data set [1]: Plasma pharmacokinetics after i.p. dosing. It is filed as in vivo, female CD-1 nude mice. The following applies: 16 and 24 hrs, below lower limit of quantitation. The protocol:
All animal studies were approved by the St. Jude Children’s Research Hospital Animal Care and Use Committee and performed in accordance with best practices outlined by the NIH Office of Laboratory Animal Welfare. […] Three survival blood samples were obtained from each mouse via retro-orbital plexus using 70 μL glass microhematocrit capillary tubes (Fisher), and a fourth final sample by cardiac puncture immediately following the third survival sample, all using K-EDTA as anticoagulant. Samples were obtained at various times up to 24 h post-dose, immediately processed to plasma, and stored at −80 °C until analysis. […]
Brain samples were homogenized using a FastPrep-24 system (MP Biomedicals, Santa Ana, CA), and stored at -80 °C until analysis by qualified liquid chromatography–tandem mass spectrometry (LC-MS/MS) assay. […] Plasma and brain homogenate samples were precipitated, and extracted supernatant was analyzed on an AB Sciex ExionLC high performance liquid chromatography system via an AB Sciex ExionLC autosampler. For quantitation, a linear model (1/X^2 weighting) fit the plasma and brian homogenate calibrators across the 1 to 500 ng/mL range, with a correlation coefficient (R) of ≥0.9967. The lower limit of quantitation (LLOQ), defined as a peak area signal-to-noise ratio of 5 or greater verses a matrix blank with internal standard, was 1 ng/mL in plasma and 6 ng/mL in brain. […]

Another data set addresses T7, GCN5L2 (Homo sapiens, UniProt Q92830).
T7 construct: purchased Eurofins DiscoverX (BROMOscan)
The data set can be described thus: BromoScan profiling (DiscoverX). The format is binding. The note with it: read-out: Percent Control GCN5L2.

A further data set has as its target T8, BRD7 (Homo sapiens, UniProt Q9NPI1).
T8 construct: purchased Eurofins DiscoverX (BROMOscan)
The data set can be described thus: BromoScan profiling (DiscoverX). It is filed as binding. The following applies: read-out: Percent Control BRD7.

The next data set has as its target T9, ATAD2B (Homo sapiens, UniProt Q9ULI0).
T9 construct: purchased Eurofins DiscoverX (BROMOscan)
Briefly: BromoScan profiling (DiscoverX). The following applies: read-out: Percent Control ATAD2B. It is filed as binding.

Another data set deals with T10, BRPF3 (Homo sapiens, UniProt Q9ULD4).
T10 construct: purchased Eurofins DiscoverX (BROMOscan)
The data set can be described thus: BromoScan profiling (DiscoverX). It is filed as binding. The note with it: read-out: Percent Control BRPF3.

The target of the next data set is T11, SMARCA2 (Homo sapiens, UniProt P51531).
T11 construct: purchased Eurofins DiscoverX (BROMOscan)
Briefly: BromoScan profiling (DiscoverX). The following applies: read-out: Percent Control SMARCA2. It is filed as binding.

The next data set deals with T12, BRD4(2) (Homo sapiens, UniProt O60885).
T12 construct: BRD4(2); purchased Eurofins DiscoverX (BROMOscan)
Briefly: BromoScan profiling (DiscoverX). It is filed as binding. The note with it: read-out: Percent Control BRD4(2).

A further data set has as its system TRIM33(PHD,Bromo.). Briefly: BromoScan profiling (DiscoverX). The note with it: 1 µM. The format is binding, human.

T6 sequence (Q86U86 645-766 limits assumed): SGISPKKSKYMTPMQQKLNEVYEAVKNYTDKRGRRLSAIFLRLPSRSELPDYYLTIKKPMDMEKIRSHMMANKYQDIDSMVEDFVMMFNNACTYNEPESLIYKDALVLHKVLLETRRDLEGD
T7 sequence (Q92830 whole entry): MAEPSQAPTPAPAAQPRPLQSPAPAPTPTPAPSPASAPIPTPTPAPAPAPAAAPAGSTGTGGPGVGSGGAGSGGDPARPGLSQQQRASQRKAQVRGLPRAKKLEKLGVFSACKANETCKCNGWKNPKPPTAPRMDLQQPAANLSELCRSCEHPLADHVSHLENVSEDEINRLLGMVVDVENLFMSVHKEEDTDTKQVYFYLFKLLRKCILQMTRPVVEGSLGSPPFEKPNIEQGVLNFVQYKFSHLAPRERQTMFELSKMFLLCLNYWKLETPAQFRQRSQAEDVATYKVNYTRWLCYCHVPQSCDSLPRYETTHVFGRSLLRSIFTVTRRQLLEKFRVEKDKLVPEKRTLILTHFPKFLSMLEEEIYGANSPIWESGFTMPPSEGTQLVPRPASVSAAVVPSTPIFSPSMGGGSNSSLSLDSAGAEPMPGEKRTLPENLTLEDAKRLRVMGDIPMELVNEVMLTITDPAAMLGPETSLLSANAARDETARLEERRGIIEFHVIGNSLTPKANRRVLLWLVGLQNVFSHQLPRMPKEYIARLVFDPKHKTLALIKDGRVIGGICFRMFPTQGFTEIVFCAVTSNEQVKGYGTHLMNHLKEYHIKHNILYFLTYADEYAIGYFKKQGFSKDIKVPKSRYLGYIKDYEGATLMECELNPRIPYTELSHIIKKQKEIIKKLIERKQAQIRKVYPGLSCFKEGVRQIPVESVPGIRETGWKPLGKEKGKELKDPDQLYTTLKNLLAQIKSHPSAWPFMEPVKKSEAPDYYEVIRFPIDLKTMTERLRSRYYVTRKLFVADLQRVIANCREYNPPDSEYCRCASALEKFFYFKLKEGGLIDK
T11 sequence (P51531 whole entry): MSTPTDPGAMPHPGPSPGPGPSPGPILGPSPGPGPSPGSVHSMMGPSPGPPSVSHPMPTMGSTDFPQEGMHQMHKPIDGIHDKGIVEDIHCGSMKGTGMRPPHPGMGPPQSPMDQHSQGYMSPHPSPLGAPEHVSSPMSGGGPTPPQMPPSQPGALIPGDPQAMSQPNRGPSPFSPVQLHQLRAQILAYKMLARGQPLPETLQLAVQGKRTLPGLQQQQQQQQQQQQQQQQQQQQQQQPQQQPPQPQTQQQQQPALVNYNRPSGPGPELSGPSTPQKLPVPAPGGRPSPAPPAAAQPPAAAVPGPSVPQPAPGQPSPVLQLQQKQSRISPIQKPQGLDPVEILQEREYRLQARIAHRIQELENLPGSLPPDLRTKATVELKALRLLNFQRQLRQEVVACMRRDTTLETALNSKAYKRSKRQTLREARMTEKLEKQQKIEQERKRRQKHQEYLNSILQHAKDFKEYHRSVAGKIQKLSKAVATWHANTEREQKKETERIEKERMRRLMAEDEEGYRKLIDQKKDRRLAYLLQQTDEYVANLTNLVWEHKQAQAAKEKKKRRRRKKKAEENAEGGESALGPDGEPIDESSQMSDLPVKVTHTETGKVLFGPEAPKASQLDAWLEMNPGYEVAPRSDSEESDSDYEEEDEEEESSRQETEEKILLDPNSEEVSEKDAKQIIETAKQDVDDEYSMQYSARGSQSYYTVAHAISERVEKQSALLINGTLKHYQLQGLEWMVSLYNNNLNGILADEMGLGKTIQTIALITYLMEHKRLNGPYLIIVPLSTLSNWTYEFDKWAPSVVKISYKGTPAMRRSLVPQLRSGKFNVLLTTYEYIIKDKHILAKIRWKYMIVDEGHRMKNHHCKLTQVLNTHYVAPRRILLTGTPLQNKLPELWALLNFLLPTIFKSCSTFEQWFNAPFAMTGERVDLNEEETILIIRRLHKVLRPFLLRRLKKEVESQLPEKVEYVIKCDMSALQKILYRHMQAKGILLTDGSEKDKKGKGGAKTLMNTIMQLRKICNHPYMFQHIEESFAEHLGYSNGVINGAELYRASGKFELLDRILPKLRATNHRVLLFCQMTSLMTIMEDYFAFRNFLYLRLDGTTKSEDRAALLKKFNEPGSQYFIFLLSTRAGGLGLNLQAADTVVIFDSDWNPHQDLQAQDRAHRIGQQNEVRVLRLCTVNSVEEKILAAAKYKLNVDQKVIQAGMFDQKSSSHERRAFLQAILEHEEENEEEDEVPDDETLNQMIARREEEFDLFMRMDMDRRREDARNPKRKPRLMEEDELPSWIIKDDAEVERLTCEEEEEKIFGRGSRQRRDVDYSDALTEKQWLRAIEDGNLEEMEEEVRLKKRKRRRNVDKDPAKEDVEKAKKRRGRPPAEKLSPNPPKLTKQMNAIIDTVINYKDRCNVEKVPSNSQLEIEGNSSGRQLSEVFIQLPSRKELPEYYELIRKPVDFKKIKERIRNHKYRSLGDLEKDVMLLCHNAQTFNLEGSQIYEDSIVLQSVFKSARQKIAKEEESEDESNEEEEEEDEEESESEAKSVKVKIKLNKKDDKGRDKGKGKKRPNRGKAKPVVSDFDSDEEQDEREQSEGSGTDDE
T4 sequence (Q86U86 178-291 limits assumed): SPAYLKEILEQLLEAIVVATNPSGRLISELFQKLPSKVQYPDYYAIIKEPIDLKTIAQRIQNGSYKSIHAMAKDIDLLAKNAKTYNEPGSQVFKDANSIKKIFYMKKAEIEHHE
T8 sequence (Q9NPI1 whole entry): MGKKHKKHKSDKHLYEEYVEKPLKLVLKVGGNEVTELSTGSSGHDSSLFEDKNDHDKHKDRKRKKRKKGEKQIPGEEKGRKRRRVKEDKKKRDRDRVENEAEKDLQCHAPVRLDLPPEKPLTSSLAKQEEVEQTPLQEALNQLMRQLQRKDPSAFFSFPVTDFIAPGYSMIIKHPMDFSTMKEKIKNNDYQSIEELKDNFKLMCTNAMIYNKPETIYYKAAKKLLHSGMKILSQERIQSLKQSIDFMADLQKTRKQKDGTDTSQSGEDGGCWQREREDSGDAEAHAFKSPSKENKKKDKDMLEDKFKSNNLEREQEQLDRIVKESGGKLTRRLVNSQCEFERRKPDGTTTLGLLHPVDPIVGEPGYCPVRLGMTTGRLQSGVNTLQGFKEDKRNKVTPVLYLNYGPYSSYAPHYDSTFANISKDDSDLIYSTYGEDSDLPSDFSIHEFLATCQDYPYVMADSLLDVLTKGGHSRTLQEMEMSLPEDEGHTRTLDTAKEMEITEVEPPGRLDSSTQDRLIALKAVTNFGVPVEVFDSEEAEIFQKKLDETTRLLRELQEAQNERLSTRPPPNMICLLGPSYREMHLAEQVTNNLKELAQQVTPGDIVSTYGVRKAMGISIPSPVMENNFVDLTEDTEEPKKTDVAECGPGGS
T9 sequence (Q9ULI0 whole entry): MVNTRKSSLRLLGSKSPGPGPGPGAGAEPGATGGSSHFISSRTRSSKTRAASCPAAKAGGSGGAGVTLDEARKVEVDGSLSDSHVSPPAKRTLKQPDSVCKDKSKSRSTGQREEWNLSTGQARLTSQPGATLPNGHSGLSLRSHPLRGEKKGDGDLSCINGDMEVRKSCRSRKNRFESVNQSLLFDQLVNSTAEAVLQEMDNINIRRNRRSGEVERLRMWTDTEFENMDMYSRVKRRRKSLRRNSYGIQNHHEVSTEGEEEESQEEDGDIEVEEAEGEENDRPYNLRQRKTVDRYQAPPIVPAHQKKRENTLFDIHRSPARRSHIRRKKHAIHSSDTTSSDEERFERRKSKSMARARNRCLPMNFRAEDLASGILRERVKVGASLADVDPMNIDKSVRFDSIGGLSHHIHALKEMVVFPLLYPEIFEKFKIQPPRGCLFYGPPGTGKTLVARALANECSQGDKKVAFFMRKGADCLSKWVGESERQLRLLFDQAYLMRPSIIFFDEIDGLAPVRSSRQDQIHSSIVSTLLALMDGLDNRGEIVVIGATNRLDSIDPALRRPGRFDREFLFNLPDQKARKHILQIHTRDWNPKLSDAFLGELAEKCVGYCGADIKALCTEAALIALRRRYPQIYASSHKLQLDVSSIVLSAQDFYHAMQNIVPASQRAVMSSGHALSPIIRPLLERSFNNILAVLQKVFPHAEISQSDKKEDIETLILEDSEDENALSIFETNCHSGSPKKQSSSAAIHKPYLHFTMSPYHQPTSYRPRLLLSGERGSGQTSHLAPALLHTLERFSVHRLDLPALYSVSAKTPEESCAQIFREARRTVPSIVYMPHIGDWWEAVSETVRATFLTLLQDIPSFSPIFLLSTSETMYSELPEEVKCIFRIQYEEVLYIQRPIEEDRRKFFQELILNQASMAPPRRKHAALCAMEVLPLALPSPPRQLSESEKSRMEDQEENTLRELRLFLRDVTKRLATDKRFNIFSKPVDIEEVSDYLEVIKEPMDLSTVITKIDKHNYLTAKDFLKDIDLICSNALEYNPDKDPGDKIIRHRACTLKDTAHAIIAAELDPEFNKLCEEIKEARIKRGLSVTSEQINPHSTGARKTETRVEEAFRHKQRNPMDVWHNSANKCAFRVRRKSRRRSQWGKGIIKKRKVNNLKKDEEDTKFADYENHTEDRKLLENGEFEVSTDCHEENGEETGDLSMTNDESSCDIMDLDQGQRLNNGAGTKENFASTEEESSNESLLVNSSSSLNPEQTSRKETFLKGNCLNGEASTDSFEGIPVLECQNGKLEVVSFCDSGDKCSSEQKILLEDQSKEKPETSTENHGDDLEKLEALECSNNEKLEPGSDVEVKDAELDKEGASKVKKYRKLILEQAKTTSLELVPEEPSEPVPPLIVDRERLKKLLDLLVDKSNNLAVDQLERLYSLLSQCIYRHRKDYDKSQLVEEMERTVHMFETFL

Take `CO[C@H]1CC[C@H](n2c([C@@H]3CCCC(=O)N3c3ccc(F)c(F)c3)nc3cc(-c4c(C)noc4C)ccc32)CC1` [CCS1477]: the remaining binding at 1 µM worked out at 31% at BRPF1; 14% on BRDT(1); 78% at PBRM1(2); 79% on BAZ2A; 71% at PBRM1(5); 100% at GCN5L2. Also, the remaining binding at 1 µM at BRD7 was 64%; on ATAD2B, 79%; at BRPF3 it was 75%; at SMARCA2, 50%; on BRD4(2), 75%. At BRD4-BD1 (BRD4-1), this molecule registered a Kd of 403 ± 137 nM. In [1], this molecule came in with a plasma concentration of less than 1 ng/mL. The “Percent Control TRIM33(PHD,Bromo.)” value with TRIM33(PHD,Bromo.) stood at 90.

As usually defined, the Kd is a measure of binding affinity in units of concentration. Read a low Kd as tighter binding.
